In US4371544A, “Pharmaceutical composition containing 1,1,3,5-substituted biuret compound” (Taiho Pharmaceutical Company Limited, priority 1979, dated 1983):
Where two headings read alike, the source gives them in different places.

What was measured:
[1] = test system: ddy strain of male mice; assay: Analgesic activity, acetic acid-induced stretching method; format: in vivo, mouse (ddy); settings: for ED50: oral, Δ mark, range in parentheses
Protocol: (§1) Next, several tests for determining the pharmacological properties, in that acute toxicity, anti-pyretic activity, analgesic activity and anti-inflammatory activity of the present 1,1,3,5-substituted biuret compounds of the formula (1) were conducted and the test results are shown in Table (2). In the tests, each compounds to be tested was used as a suspension in 0.25% carboxymethylcellulose solution. Methods for testing are explained as follows:
According to the method reported by Koster et al., [Fed. Proc., Vol. 18, pp. 412 (1959)], the ddy strain of male mice (body weight, 20-25 g) were used as test animals. The mice were fasted overnight, 100 mg/kg body weight of the test compound was administered orally, then 1 hour after the administration, 0.2 ml of 0.7% acetic acid solution was injected intraperitoneally. The acetic acid-induced stretching symptom of mouse was observed. Analgesic activity of the test compound was calculated as the inhibitory ratio (%). In Table 2, the values in parentheses show the data obtained from the test by using the dosage other than 100 mg/kg body weight. Further, the values indicated with Δ marks show 50% effective dose, ED50 (mg/kg body weight).

[2] = test system: ddy strain of male mice; assay: Acute toxicity (oral, mice, 7 days observation); format: in vivo
Protocol: as §1
The ddy strain of male mice (body weight, 20-25 g) were used as test animals. The mice were fasted overnight and the compound to be tested was administered orally. […] The lethal dose (mg/kg, body weight) of the test compound was determined in connection with the death number of mice/the number of mice tested. In Table 2, the values indicated with Δ marks are 50% lethal dose, LD50 (mg/kg, body weight).

[3] = test system: ddy strain of male mice; assay: Analgesic activity, Haffner method (morphine threshold dose, clamp); format: in vivo, mouse (ddy); settings: for inhibition in vivo at 200 mg/kg / inhibition in vivo at 100 mg/kg / ED50: Mus musculus; for inhibition in vivo at 200 mg/kg / inhibition in vivo at 100 mg/kg: read-out: Analgesic activity, Haffner method, inhibitory ratio; for ED50: oral, Δ mark, range in parentheses
Protocol: as §1
According to the modified method reported by Fujimura et. al., [Bulletin of the Institute for Chemical Research, Kyoto University, No. 25, pp. 36 (1951)], the ddy strain of male mice (body weight, 20-25 g) were used as test animals. The mice were fasted overnight, 100 mg/kg body weight of the test compound was administered orally, then 45 minutes after the administration, the threshold amount (1.5-2.5 mg/kg body weight) of morphine hydrochloride was injected subcutaneously. Then 1-hour pain reaction of the mouse caused by a clamp was observed. Analgesic activity of the test compound was calculated as the inhibitory ratio (%). In Table 2, the values in parentheses show the data obtained from the test by using the dosage other than 100 mg/kg body weight. Further, the values indicated with Δ marks show 50% effective dose, ED50 (mg/kg body weight).

[4] = test system: Wistar strain of male rats; assay: Anti-inflammatory activity (acute carrageenin-induced inflammatory test, hindpaw); format: in vivo, rat (Wistar); settings: for inhibition in vivo at 100 mg/kg / inhibition in vivo at 200 mg/kg: Rattus norvegicus, read-out: Anti-inflammatory activity, inflammation inhibitory ratio
Protocol: as §1
According to the method of acute carrageenin-induced inflammatory test [Folia Pharmacologia Japonica, Vol. 56, pp. 575 (1960)], the Wistar strain of male rats (body weight, 150-180 g) were used as test animals. The rats were fasted overnight, 100 mg/kg body weight of the test compound was administered orally, then 1 hour after the administration, 0.1 ml of 1% carrageenin solution, as the inflammation inducing agent, was injected subcutaneously to the hindpaw of the rat and the volume of the hindpaw was measured at time sequences, Anti-inflammatory activity of the test compound was calculated as inflammation inhibitory ratio (%) at 3 hours after the injection of inflammation inducing agent.

[5] = test system: Wistar strain of male rats; assay: Anti-pyretic activity (dry-yeast-induced fever); format: in vivo, rat (Wistar); settings: oral (dose not given), up to 4 hours after administration
Protocol: as §1
According to the method reported by Tanabe [Folia Pharmacologia Japonica, Vol. 73, pp. 803 (1977)], the Wistar strain of male rats (150-180 g, body weight) were used as test animals. The rats were fasted overnight, and 1 ml/100 g (body weight) of 10% dry-yeast suspension were subcutaneously injected on the back of the rats. Five hours after the injection, the test compound was administered orally, then the body temperature of the rat was measured at time sequences. Anti-pyretic activity of the test compound was determined as the FI (febril index) by integrating pyrogenetic curve up to 4 hours after the administration of the test compound with time, and indicated as inhibitory ratio (%) shown by the following formula, [formula]

[6] = Mus musculus, po, read-out: Analgesic activity, acetic acid-induced stretching method, inhibitory ratio
[7] = 100 mg/kg oral, 3 hours after carrageenin
[8] = 100 mg/kg oral, 45 minutes before morphine hydrochloride
[9] = 100 mg/kg oral, 1 hour before acetic acid

Structure (SMILES): CN(C)C(=O)NC(=O)Nc1ccccc1 [Compound No. 1]
- inhibition in vivo at 100 mg/kg [1, 6]: 50%
- Acute toxicity: death number of mice/number of mice tested ([2]; mouse, in vivo): 0/4
- inhibition in vivo at 200 mg/kg ([3]; 200 mg/kg oral): 50%
- inhibition in vivo at 100 mg/kg [4, 7]: 42%

Structure (SMILES): COc1ccc(NC(=O)NC(=O)N(C)C)cc1 [Compound No. 4, 1,1-Dimethyl-5-(4-methoxyphenyl)biuret]
- inhibition in vivo at 100 mg/kg [1, 6]: 75%
- Acute toxicity: death number of mice/number of mice tested ([2]; 2000 mg/kg oral): 0/4
- inhibition in vivo at 100 mg/kg [3, 8]: 50%
- inhibition in vivo at 100 mg/kg ([4]; po, 3 h): 43%

Structure (SMILES): Cc1ccc(NC(=O)NC(=O)N(C)C)cc1 [Compound No. 5]
- inhibition in vivo at 100 mg/kg [1, 6]: 25%
- Acute toxicity: death number of mice/number of mice tested ([2]; 2000 mg/kg oral): 0/4
- inhibition in vivo at 100 mg/kg ([4]; po, 2 h): 23%

Structure (SMILES): CN(C)C(=O)N(C)C(=O)Nc1ccccc1 [Compound No. 6, 1,1,3-trimethyl-5-phenylbiuret]
- Anti-pyretic activity, inhibitory ratio (febril index) [5]: 80%
- ED50 ([1]; Mus musculus): 75 mg/kg
- ED50 [3]: 68 mg/kg
- Anti-inflammatory activity, inflammation inhibitory ratio [4, 7]: 59%

Structure (SMILES): CN(C)C(=O)N(C)C(=O)Nc1ccc(Cl)cc1 [Compound No. 12, 1,1,3-Trimethyl-5-(4-chlorophenyl)biuret]
- Anti-pyretic activity, inhibitory ratio (febril index) [5]: 84%
- ED50 ([1]; Mus musculus): 12 mg/kg
- ED50 [3]: 20 mg/kg
- Anti-inflammatory activity, inflammation inhibitory ratio [4, 7]: 47%

Structure (SMILES): CCN(C)C(=O)NC(=O)Nc1ccccc1 [Compound No. 43, 1-ethyl-1-methyl-5-phenylbiuret]
- inhibition in vivo at 100 mg/kg ([1]; Mus musculus, 100 mg/kg oral, 1 hour before acetic acid, read-out: Analgesic activity, acetic acid-induced stretching method, inhibitory ratio): 50%
- Acute toxicity: death number of mice/number of mice tested ([2]; 2000 mg/kg oral): 0/4
- inhibition in vivo at 200 mg/kg ([3]; 200 mg/kg oral): 12.5%
- inhibition in vivo at 200 mg/kg ([4]; 200 mg/kg oral, 3 hours after carrageenin): 72%

Structure (SMILES): CN(C)C(=O)N(C)C(=O)Nc1ccc([N+](=O)[O-])cc1 [compound 20, 1,1,3-Trimethyl-5-(4-nitrophenyl)biuret]
- Anti-pyretic activity, inhibitory ratio (febril index) [5]: 26%
- Acute toxicity: death number of mice/number of mice tested ([2]; 500 mg/kg oral): 2/4
- Analgesic activity, Haffner method, inhibitory ratio [3, 8]: 50%
- Anti-inflammatory activity, inflammation inhibitory ratio [4, 7]: 32%

Structure (SMILES): COc1cc(NC(=O)N(C)C(=O)N(C)C)cc(OC)c1OC [compound 25, 1,1,3-Trimethyl-5-(3,4,5-trimethoxyphenyl)biuret]
- Anti-pyretic activity, inhibitory ratio (febril index) [5]: 23%
- Acute toxicity: death number of mice/number of mice tested ([2]; 500 mg/kg oral): 0/4
- Acute toxicity: death number of mice/number of mice tested ([2]; 1000 mg/kg oral): 2/4
- Analgesic activity, Haffner method, inhibitory ratio [3, 8]: 62.5%
- Anti-inflammatory activity, inflammation inhibitory ratio [4, 7]: 30%

Structure (SMILES): Cc1c(Cl)cccc1NC(=O)N(C)C(=O)N(C)C [compound 32, 1,1,3-Trimethyl-5-(2-methyl-3-chlorophenyl)biuret]
- Anti-pyretic activity, inhibitory ratio (febril index) [5]: 45%
- Analgesic activity, acetic acid-induced stretching method, inhibitory ratio [1, 9]: 75%
- Acute toxicity: death number of mice/number of mice tested ([2]; 1000 mg/kg oral): 1/4
- Acute toxicity: death number of mice/number of mice tested ([2]; 2000 mg/kg oral): 4/4
- Analgesic activity, Haffner method, inhibitory ratio [3, 8]: 25%

Structure (SMILES): CC(=O)c1ccc(NC(=O)N(C)C(=O)N(C)C)cc1 [compound 33, 1,1,3-Trimethyl-5-(4-acetylphenyl)biuret]
- Anti-pyretic activity, inhibitory ratio (febril index) [5]: 36%
- Acute toxicity: death number of mice/number of mice tested ([2]; 500 mg/kg oral): 0/4
- Acute toxicity: death number of mice/number of mice tested ([2]; 1000 mg/kg oral): 4/4
- Analgesic activity, Haffner method, inhibitory ratio [3, 8]: 37.5%
- Anti-inflammatory activity, inflammation inhibitory ratio ([4]; 100 mg/kg oral, (2 hours)): 31%

Structure (SMILES): CN(C)C(=O)N(C)C(=O)NC1CCCCC1 [compound 35, 1,1,3-Trimethyl-5-cyclohexylbiuret]
- Analgesic activity, acetic acid-induced stretching method, inhibitory ratio ([1]; 200 mg/kg oral): 87.5%
- Analgesic activity, Haffner method, inhibitory ratio [3, 8]: 25%
- inhibition in vivo at 100 mg/kg ([4]; po, 3 h): 24%

Structure (SMILES): CCCN(C(=O)Nc1ccccc1)C(=O)N(C)C [compound 37, 1,1-Dimethyl-3-n-propyl-5-phenylbiuret]
- Anti-pyretic activity, inhibitory ratio (febril index) [5]: 12%
- Analgesic activity, acetic acid-induced stretching method, inhibitory ratio [1, 9]: 37.5%
- Acute toxicity: death number of mice/number of mice tested ([2]; 2000 mg/kg oral): 0/4
- Analgesic activity, Haffner method, inhibitory ratio ([3]; 200 mg/kg oral): 62.5%

Structure (SMILES): CCCCN(C)C(=O)NC(=O)Nc1ccccc1 [compound 47, 1-Methyl-1-n-butyl-5-phenylbiuret]
- inhibition in vivo at 100 mg/kg [1, 6]: 50%
- Acute toxicity: death number of mice/number of mice tested ([2]; 2000 mg/kg oral): 0/4
- inhibition in vivo at 100 mg/kg [3, 8]: 25%
- inhibition in vivo at 100 mg/kg [4, 7]: 20%

Structure (SMILES): CCCCN(C)C(=O)N(C)C(=O)Nc1ccccc1 [compound 48, 1,3-Dimethyl-1-n-butyl-5-phenylbiuret]
- Anti-pyretic activity, inhibitory ratio (febril index) [5]: 35%
- Analgesic activity, acetic acid-induced stretching method, inhibitory ratio [1, 9]: 37.5%
- Acute toxicity: death number of mice/number of mice tested ([2]; 1000 mg/kg oral): 0/4
- Acute toxicity: death number of mice/number of mice tested ([2]; 2000 mg/kg oral): 3/4
- Analgesic activity, Haffner method, inhibitory ratio [3, 8]: 25%

Structure (SMILES): CN(C(=O)Nc1ccccc1)C(=O)N1CC1 [compound 66, 1,1-Ethylene-3-methyl-5-phenylbiuret]
- Anti-pyretic activity, inhibitory ratio (febril index) [5]: 28%
- inhibition in vivo at 100 mg/kg [1, 6]: 62.5%
- Acute toxicity: death number of mice/number of mice tested ([2]; 250 mg/kg oral): 2/4
- Acute toxicity: death number of mice/number of mice tested ([2]; 500 mg/kg oral): 4/4
- inhibition in vivo at 100 mg/kg [3, 8]: 25%

Structure (SMILES): O=C(NC(=O)N1CCCC1)Nc1ccccc1 [compound 67, 1,1-Tetramethylene-5-phenylbiuret]
- inhibition in vivo at 100 mg/kg [1, 6]: 50%
- Acute toxicity: death number of mice/number of mice tested ([2]; 2000 mg/kg oral): 0/4
- inhibition in vivo at 100 mg/kg [3, 8]: 37.5%
- inhibition in vivo at 100 mg/kg ([4]; po, 3 h): 33%

Structure (SMILES): O=C(NC(=O)N1CCOCC1)Nc1ccccc1 [compound 71, 1,1-(3-Oxapentamethylene)-5-phenylbiuret]
- inhibition in vivo at 200 mg/kg ([1]; Mus musculus, 200 mg/kg oral, read-out: Analgesic activity, acetic acid-induced stretching method, inhibitory ratio): 40%
- Acute toxicity: death number of mice/number of mice tested ([2]; mouse, in vivo): 0/4
- inhibition in vivo at 200 mg/kg ([3]; 200 mg/kg oral): 50%
- inhibition in vivo at 200 mg/kg ([4]; po, 3 h): 23%

Structure (SMILES): CN(C(=O)Nc1ccccc1)C(=O)N1CCOCC1 [compound 73, 1,1-(3-Oxapentamethylene)-3-methyl-5-phenylbiuret]
- Anti-pyretic activity, inhibitory ratio (febril index) [5]: 17%
- inhibition in vivo at 100 mg/kg [1, 6]: 50%
- Acute toxicity: death number of mice/number of mice tested ([2]; mouse, in vivo): 0/4
- inhibition in vivo at 100 mg/kg [3, 8]: 25%
